These results are taken from patent publication US20220389010A1, “Novel Triazolopyridine Derivatives and Pharmaceutical Composition Comprising Same” (Daewoong Pharmaceutical Co., Ltd., priority 2019, published 2022).

For the test, the target named is T1, Recombinant purified human JAK3 (Homo sapiens, UniProt P52333).
T1 construct: purchased Promega V9441
T1 sequence (P52333 1-1124): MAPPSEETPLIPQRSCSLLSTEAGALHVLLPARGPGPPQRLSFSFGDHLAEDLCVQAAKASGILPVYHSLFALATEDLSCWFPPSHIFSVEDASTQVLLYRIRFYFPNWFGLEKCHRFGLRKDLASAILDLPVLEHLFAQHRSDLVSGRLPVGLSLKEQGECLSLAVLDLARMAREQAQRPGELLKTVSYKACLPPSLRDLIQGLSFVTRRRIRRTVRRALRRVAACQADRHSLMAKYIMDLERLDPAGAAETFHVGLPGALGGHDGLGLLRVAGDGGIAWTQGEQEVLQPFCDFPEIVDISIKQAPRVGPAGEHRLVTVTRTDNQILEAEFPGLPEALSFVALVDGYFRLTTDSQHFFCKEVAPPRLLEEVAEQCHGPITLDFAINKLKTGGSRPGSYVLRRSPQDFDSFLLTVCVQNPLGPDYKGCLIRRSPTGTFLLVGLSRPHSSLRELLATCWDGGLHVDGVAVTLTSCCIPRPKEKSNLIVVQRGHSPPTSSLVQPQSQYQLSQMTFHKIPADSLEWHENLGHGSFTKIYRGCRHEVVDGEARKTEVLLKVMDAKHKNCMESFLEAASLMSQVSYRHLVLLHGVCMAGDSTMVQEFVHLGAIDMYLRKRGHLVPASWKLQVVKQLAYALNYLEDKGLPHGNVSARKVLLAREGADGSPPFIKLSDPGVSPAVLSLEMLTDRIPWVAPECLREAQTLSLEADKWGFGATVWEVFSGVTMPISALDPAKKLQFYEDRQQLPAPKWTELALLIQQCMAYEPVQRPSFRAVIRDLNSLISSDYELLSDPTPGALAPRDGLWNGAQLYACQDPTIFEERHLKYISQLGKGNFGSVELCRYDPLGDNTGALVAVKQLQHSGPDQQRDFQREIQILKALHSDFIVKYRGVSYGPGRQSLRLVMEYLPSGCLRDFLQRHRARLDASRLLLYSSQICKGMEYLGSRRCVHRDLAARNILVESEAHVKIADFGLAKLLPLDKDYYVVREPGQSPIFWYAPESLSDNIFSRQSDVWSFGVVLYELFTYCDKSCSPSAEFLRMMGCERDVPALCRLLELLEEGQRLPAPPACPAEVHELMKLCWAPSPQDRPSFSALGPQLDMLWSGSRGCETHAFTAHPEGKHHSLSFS
In words: JAK3 inhibitory activity test (ADP-Glo kinase assay). The class given is biochemical. The following applies: ATP 5 uM, 1 hour incubation at 30° C. The protocol: The inhibitory activities against JAK3 were measured for the compounds prepared in the above Examples through in vitro analysis on the ADP Glow (Glo) platform.
Specifically, the inhibitory activities against JAK3 were measured using a JAK3 kinase assay kit (Promega, V9441), which was purchased from Promega. Recombinant purified human JAK3 was diluted with 1× kinase reaction buffer (JAK3: 40 mM Tris-CI, pH 7.5, 20 mM MgCl2, 0.1 mg/mL BSA and 50 uM OTT and added to a 96 well plate (JAK3: final concentration of 4 ng per reaction). The compounds prepared in the previous Examples were treated so as to be finally a 1% DMSO aqueous solution, and a substrate cocktail containing ATP (JAK3: final concentration of 5 uM) and 0.2 ug/ul of Poly(Glu4, Tyri) peptide (JAK3 final concentration) in the total 25 uL reactants was added to a 96-well plate to initiate enzymatic reaction. After incubation (30° C.) for 1 hour, equivalent volume (25 uL per reaction) of ADP Glo was added and incubated (30° C.) for 40 minutes at room temperature. Then, a kinase detection reagent (50 uL per reaction) was added and incubated (30° C.) for 30 minutes at room temperature. The kinase activity was measured by chemiluminescence according to the instructions of ADP Glo kinase assay kit, and the inhibitory activity of the compounds according to the present invention was calculated. For the analysis of the results of each compound, Microsoft Excel was used, and IC50 values were calculated by SigmaPlot software.
On the technique in general: In ADP-Glo the light output rises with the ADP produced.
One may read the IC50 as the concentration at which inhibition is half-maximal. With `C=CC(=O)Nc1cccc(Oc2cccc3nc(Nc4ccc5scnc5c4)nn23)c1` [Example 12, N-(3-(2-(benzo[d]thiazol-5-ylamino)-[1,2,4]triazolo[1,5-a]pyridin-5-yloxy)phenyl)acrylamide], the IC50 was 2.6 nM.

With `C=CC(=O)Nc1ccc(F)c(Oc2cccc3nc(Nc4cnn(C)c4)nn23)c1` [Example 30, N-(4-fluoro-3-(2-(1-methyl-1H-pyrazol-4-ylamino)-[1,2,4]triazolo[1,5-a]pyridin-5-yloxy)phenyl)acrylamide], the concentration for half-maximal inhibition (IC50) amounted to 13.1 nM.

`C=CC(=O)Nc1cccc(Oc2cccc3nc(Nc4ccc(CN(C)C)cc4)nn23)c1` [Example 16, N-(3-(2-(4-((dimethylamino)methyl)phenylamino)-[1,2,4]triazolo[1,5-a]pyridin-5-yloxy)phenyl)acrylamide]: the IC50 stood at 0.7 nM.

For `C=CC(=O)Nc1cccc(Oc2cccc3nc(Nc4ccc(S(=O)(=O)N5CCCCC5)cc4)nn23)c1` [Example 18, N-(3-(2-(4-(piperidin-1-ylsulfonyl)phenylamino)-[1,2,4]triazolo[1,5-a]pyridin-5-yloxy)phenyl)acrylamide], the half-inhibitory concentration (IC50) worked out at 3 nM.

Regarding `C=CC(=O)Nc1cccc(Oc2cccc3nc(Nc4cnn(Cc5cccc(OC)c5)c4)nn23)c1` [Example 14, N-(3-(2-(1-(3-methoxybenzyl)-1H-pyrazol-4-ylamino)-[1,2,4]triazolo[1,5-a]pyridin-5-yloxy)phenyl)acrylamide], the IC50 amounted to 11.1 nM.

In the case of `C=CC(=O)Nc1cccc(Oc2cccc3nc(Nc4cnc5ncn(C)c5c4)nn23)c1` [Example 26, N-(3-(2-(1-methyl-1H-imidazo[4,5-b]pyridin-6-ylamino)-[1,2,4]triazolo[1,5-a]pyridin-5-yloxy)phenyl)acrylamide], the IC50 was over 80 nM.
